Reference: patent US10294202B2, “Pyrrolidinones as herbicides” (FMC Corporation, priority 2013, dated 2019)

Key:
field violet = assay: Test D pre-/postemergence herbicide test; format: in vivo, Viola arvensis; details: for Plant response rating: Field Violet, scale 0 to 100; for Plant response rating, Field Violet: scale 0 to 100 (0 no effect, 100 complete control)
Procedure, shortened: (§1)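 Seeds sown in silt loam were sprayed preemergence with test chemicals in a non-phytotoxic solvent mixture with surfactant. Postemergence plants grown in peat/vermiculite medium were treated at 2–18 cm (1- to 4-leaf stage). After 7 to 21 days in a controlled environment, injury was rated visually versus controls, 0 (no effect) to 100 (complete control).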

oilseed rape = assay: Test D pre-/postemergence herbicide test; format: in vivo, Brassica napus; details: for Plant response rating: Postemergence, Oilseed Rape, scale 0 to 100; for Plant response rating, Oilseed Rape: Preemergence, scale 0 to 100 (0 no effect, 100 complete control)
Procedure, shortened: as §1

wheat, spring = assay: Test D pre-/postemergence herbicide test; format: in vivo, Triticum aestivum; details: for Plant response rating: Postemergence, Wheat, Spring, scale 0 to 100; for Plant response rating, Wheat, Spring: Preemergence, scale 0 to 100 (0 no effect, 100 complete control)
Procedure, shortened: as §1

wheat, winter = assay: Test D pre-/postemergence herbicide test; format: in vivo, Triticum aestivum; details: for Plant response rating: Postemergence, Wheat, Winter, scale 0 to 100; for Plant response rating, Wheat, Winter: Preemergence, scale 0 to 100 (0 no effect, 100 complete control)
Procedure, shortened: as §1

pigweed, palmer = assay: Test E preemergence herbicide test; format: in vivo, Amaranthus palmeri; design: key: 0 = no effect, 100 = complete control
Procedure, shortened: (§2)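 Greenhouse preemergence test: seeds sown into silt loam received compound in a non-phytotoxic solvent mixture with surfactant. Plants grew 21 days before visual comparison with controls. Scores run from 0, no effect, to 100, complete control.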

ragweed = assay: Test E preemergence herbicide test; format: in vivo, Ambrosia elatior; design: key: 0 = no effect, 100 = complete control
Procedure, shortened: as §2

barnyardgrass = assay: Test E preemergence herbicide test; format: in vivo, Echinochloa crus-galli; design: key: 0 = no effect, 100 = complete control
Procedure, shortened: as §2

ryegrass, Italian = assay: Test E preemergence herbicide test; format: in vivo, Lolium multiflorum; design: key: 0 = no effect, 100 = complete control
Procedure, shortened: as §2

dayflower, VA = assay: Test E preemergence herbicide test; format: in vivo, Commelina virginica; design: key: 0 = no effect, 100 = complete control
Procedure, shortened: as §2

morningglory = assay: Test E preemergence herbicide test; format: in vivo, Ipomoea coccinea; design: key: 0 = no effect, 100 = complete control
Procedure, shortened: as §2

beggarticks = assay: Test E preemergence herbicide test; format: in vivo, Bidens pilosa; design: key: 0 = no effect, 100 = complete control
Excerpt: Seeds of plant species selected from corn (Zea mays), soybean (Glycine max), velvetleaf (Abutilon theophrasti), lambsquarters (Chenopodium album), wild poinsettia (Euphorbia heterophylla), pigweed, palmer (palmer pigweed, Amaranthus palmeri), waterhemp (common waterhemp, Amaranthus rudis), surinam grass (Brachiaria decumbens), crabgrass, large (large crabgrass, Digitaria sanguinalis), crabgrass, Brazil (Brazilian crabgrass, Digitaria horizontalis), panicum, fall (fall panicum, Panicum dichotomiflorum), foxtail, giant (giant foxtail, Setaria faberii), foxtail, green (green foxtail, Setaria viridis), goosegrass (Eleusine indica), johnsongrass (Sorghum halepense), ragweed (common ragweed, Ambrosia elatior), barnyardgrass (Echinochloa crus-galli), sandbur (southern sandbur, Cenchrus echinatus), arrowleaf […] rhombifolia), ryegrass, Italian (Italian ryegrass, Lolium multiflorum), dayflower, VA (Virginia dayflower, Commelina virginica), field bindweed (Convolvulus arvensis), morningglory (Ipomoea coccinea), nightshade (eastern black nightshade, Solanum ptycanthum), kochia (Kochia scoparia), nutsedge, yellow (yellow nutsedge, Cyperus esculentus), cocklebur (common cocklebur, Xanthium strumarium), smartweed (ladysthumb smartweed, Polygonum Persicaria) and beggarticks (hairy beggarticks, Bidens pilosa), were planted into a silt loam soil and treated preemergence with test chemicals formulated in a non-phytotoxic solvent mixture which included a surfactant. Treated plants and controls were maintained in a greenhouse for 21 days, after which time all species were compared to controls and visually evaluated. Plant response ratings, summarized in Table E, are based on a scale of 0 to 100 where 0 is no effect and 100 is complete control. A dash (-) response means no test result.

## O=C1NCC(c2ccc(C(F)(F)F)cc2)C1C(=O)Nc1cccc(F)c1F (centres unmarked) [Compound 80, N-(2,3-difluorophenyl)-2-oxo-4-[4-(trifluoromethyl)phenyl]-3-pyrrolidinecarboxamide]
Field violet; Postemergence, 31 g ai/ha
  Plant response rating: 15
Field violet; Postemergence, 62 g ai/ha
  Plant response rating: 20
Field violet; Postemergence, 125 g ai/ha
  Plant response rating: 15
Field violet; Postemergence, 250 g ai/ha
  Plant response rating: 25
Field violet; Preemergence, 62 g ai/ha
  Plant response rating, Field Violet: 20
Field violet; Preemergence, 31 g ai/ha
  Plant response rating, Field Violet: 0
Field violet; Preemergence, 125 g ai/ha
  Plant response rating: 20
Field violet; Preemergence, 250 g ai/ha
  Plant response rating: 25
Oilseed rape; 31 g ai/ha
  Plant response rating: 30
  Plant response rating, Oilseed Rape: 0
Oilseed rape; 62 g ai/ha
  Plant response rating: 50
  Plant response rating, Oilseed Rape: 10
Oilseed rape; 125 g ai/ha
  Plant response rating: 45
  Plant response rating, Oilseed Rape: 10
Oilseed rape; 250 g ai/ha
  Plant response rating: 60
  Plant response rating, Oilseed Rape: 30
wheat, spring; 31 g ai/ha
  Plant response rating: 0
  Plant response rating, Wheat, Spring: 0
wheat, spring; 62 g ai/ha
  Plant response rating: 0
  Plant response rating, Wheat, Spring: 10
wheat, spring; 125 g ai/ha
  Plant response rating: 0
  Plant response rating, Wheat, Spring: 10
wheat, spring; 250 g ai/ha
  Plant response rating: 0
  Plant response rating, Wheat, Spring: 20
wheat, winter; 31 g ai/ha
  Plant response rating: 0
  Plant response rating, Wheat, Winter: 5
wheat, winter; 62 g ai/ha
  Plant response rating: 0
  Plant response rating, Wheat, Winter: 5
wheat, winter; 125 g ai/ha
  Plant response rating: 10
  Plant response rating, Wheat, Winter: 10
wheat, winter; 250 g ai/ha
  Plant response rating: 5
  Plant response rating, Wheat, Winter: 10
pigweed, palmer; 16 g ai/ha
  Plant response rating, Pigweed, Palmer: 0
pigweed, palmer; 31 g ai/ha
  Plant response rating, Pigweed, Palmer: 0
pigweed, palmer; 125 g ai/ha
  Plant response rating, Pigweed, Palmer: 65
pigweed, palmer; 250 g ai/ha
  Plant response rating, Pigweed, Palmer: 90
ragweed; 16 g ai/ha
  Plant response rating, Ragweed: 0
ragweed; 31 g ai/ha
  Plant response rating, Ragweed: 0
ragweed; 62 g ai/ha
  Plant response rating, Ragweed: 0
ragweed; 125 g ai/ha
  Plant response rating, Ragweed: 0
ragweed; 250 g ai/ha
  Plant response rating, Ragweed: 20
barnyardgrass; 16 g ai/ha
  Plant response rating, Barnyardgrass: 0
barnyardgrass; 31 g ai/ha
  Plant response rating, Barnyardgrass: 20
barnyardgrass; 62 g ai/ha
  Plant response rating, Barnyardgrass: 50
barnyardgrass; 125 g ai/ha
  Plant response rating, Barnyardgrass: 75
barnyardgrass; 250 g ai/ha
  Plant response rating, Barnyardgrass: 80
ryegrass, Italian; 16 g ai/ha
  Plant response rating, Ryegrass, Italian: 0
ryegrass, Italian; 31 g ai/ha
  Plant response rating, Ryegrass, Italian: 0
ryegrass, Italian; 62 g ai/ha
  Plant response rating, Ryegrass, Italian: 0
ryegrass, Italian; 125 g ai/ha
  Plant response rating, Ryegrass, Italian: 45
ryegrass, Italian; 250 g ai/ha
  Plant response rating, Ryegrass, Italian: 60
dayflower, VA; 16 g ai/ha
  Plant response rating, Dayflower, VA: 0
dayflower, VA; 31 g ai/ha
  Plant response rating, Dayflower, VA: 0
dayflower, VA; 62 g ai/ha
  Plant response rating, Dayflower, VA: 0
dayflower, VA; 125 g ai/ha
  Plant response rating, Dayflower, VA: 0
dayflower, VA; 250 g ai/ha
  Plant response rating, Dayflower, VA: 0
morningglory; 16 g ai/ha
  Plant response rating, Morningglory: 0
morningglory; 31 g ai/ha
  Plant response rating, Morningglory: 0
morningglory; 62 g ai/ha
  Plant response rating, Morningglory: 0
morningglory; 125 g ai/ha
  Plant response rating, Morningglory: 20
morningglory; 250 g ai/ha
  Plant response rating, Morningglory: 40
beggarticks; 16 g ai/ha
  Plant response rating, Beggarticks: 0
beggarticks; 31 g ai/ha
  Plant response rating, Beggarticks: 0
beggarticks; 62 g ai/ha
  Plant response rating, Beggarticks: 0
beggarticks; 125 g ai/ha
  Plant response rating, Beggarticks: 20
beggarticks; 250 g ai/ha
  Plant response rating, Beggarticks: 60

## O=C1NC[C@H](c2cccc(C(F)(F)F)c2)[C@H]1C(=O)Nc1ccccc1F [Compound 204, (3R,4S)—N-(2-fluorophenyl)-2-oxo-4-[3-(trifluoromethyl)phenyl]-3-pyrrolidinecarboxamide]
Field violet; Preemergence, 62 g ai/ha
  Plant response rating, Field Violet: 15
Field violet; Preemergence, 125 g ai/ha
  Plant response rating, Field Violet: 25
Field violet; Preemergence, 31 g ai/ha
  Plant response rating, Field Violet: 10
Field violet; Preemergence, 250 g ai/ha
  Plant response rating: 25
Oilseed rape; 62 g ai/ha
  Plant response rating, Oilseed Rape: 0
Oilseed rape; 125 g ai/ha
  Plant response rating, Oilseed Rape: 0
Oilseed rape; 31 g ai/ha
  Plant response rating, Oilseed Rape: 0
Oilseed rape; 250 g ai/ha
  Plant response rating, Oilseed Rape: 0
wheat, spring; 62 g ai/ha
  Plant response rating, Wheat, Spring: 0
wheat, spring; 125 g ai/ha
  Plant response rating, Wheat, Spring: 25
wheat, spring; 31 g ai/ha
  Plant response rating, Wheat, Spring: 0
wheat, spring; 250 g ai/ha
  Plant response rating, Wheat, Spring: 30
wheat, winter; 62 g ai/ha
  Plant response rating, Wheat, Winter: 15
wheat, winter; 125 g ai/ha
  Plant response rating, Wheat, Winter: 15
wheat, winter; 31 g ai/ha
  Plant response rating, Wheat, Winter: 5
wheat, winter; 250 g ai/ha
  Plant response rating, Wheat, Winter: 20
pigweed, palmer; 31 g ai/ha
  Plant response rating, Pigweed, Palmer: 0
pigweed, palmer; 62 g ai/ha
  Plant response rating, Pigweed, Palmer: 0
pigweed, palmer; 125 g ai/ha
  Plant response rating, Pigweed, Palmer: 0
pigweed, palmer; 250 g ai/ha
  Plant response rating, Pigweed, Palmer: 0
ragweed; 31 g ai/ha
  Plant response rating, Ragweed: 0
ragweed; 62 g ai/ha
  Plant response rating, Ragweed: 0
ragweed; 125 g ai/ha
  Plant response rating, Ragweed: 0
ragweed; 250 g ai/ha
  Plant response rating, Ragweed: 0
barnyardgrass; 31 g ai/ha
  Plant response rating, Barnyardgrass: 20
barnyardgrass; 62 g ai/ha
  Plant response rating, Barnyardgrass: 75
barnyardgrass; 125 g ai/ha
  Plant response rating, Barnyardgrass: 98
barnyardgrass; 250 g ai/ha
  Plant response rating, Barnyardgrass: 98
ryegrass, Italian; 31 g ai/ha
  Plant response rating, Ryegrass, Italian: 0
ryegrass, Italian; 62 g ai/ha
  Plant response rating, Ryegrass, Italian: 0
ryegrass, Italian; 125 g ai/ha
  Plant response rating, Ryegrass, Italian: 25
ryegrass, Italian; 250 g ai/ha
  Plant response rating, Ryegrass, Italian: 30
dayflower, VA; 31 g ai/ha
  Plant response rating, Dayflower, VA: 0
dayflower, VA; 62 g ai/ha
  Plant response rating, Dayflower, VA: 0
dayflower, VA; 125 g ai/ha
  Plant response rating, Dayflower, VA: 20
dayflower, VA; 250 g ai/ha
  Plant response rating, Dayflower, VA: 30
morningglory; 31 g ai/ha
  Plant response rating, Morningglory: 0
morningglory; 62 g ai/ha
  Plant response rating, Morningglory: 0
morningglory; 125 g ai/ha
  Plant response rating, Morningglory: 20
morningglory; 250 g ai/ha
  Plant response rating, Morningglory: 30
beggarticks; 31 g ai/ha
  Plant response rating, Beggarticks: 0
beggarticks; 62 g ai/ha
  Plant response rating, Beggarticks: 0
beggarticks; 125 g ai/ha
  Plant response rating, Beggarticks: 0
beggarticks; 250 g ai/ha
  Plant response rating, Beggarticks: 0
